Experiments:
[1] = molecular target: Hepatitis C Virus NS3/4A protease T54A (Hepatitis C virus genotype 1b, UniProt O92972, T1080A); assay: biochemical
[2] = system: Hepatitis C Virus NS3/4A protease T54A; assay: biochemical; conditions: T54A vs Wild Type
human PBM cells = assay: Cytotoxicity assay in human PBM cells; assay type: cell-based; conditions: Homo sapiens, PBMC; PBM cells, 100 μM
Method: (§1) The toxicity of the compounds was assessed in Vero, human PBM, CEM (human lymphoblastoid), MT-2, and HepG2 cells, as described previously (see Schinazi R. F., Sommadossi J.-P., Saalmann V., Cannon D. L., Xie M.-Y., Hart G. C., Smith G. A. & Hahn E. F. Antimicrob. Agents Chemother. 1990, 34, 1061-67). Cycloheximide was included as positive cytotoxic control, and untreated cells exposed to solvent were included as negative controls. The cytotoxicity IC50 was obtained from the concentration-response curve using the median effective method described previously (see Chou T.-C. & Talalay P. Adv. Enzyme Regul. 1984, 22, 27-55; Belen'kii M. S. & Schinazi R. F. Antiviral Res. 1994, 25,1-11).

[3] = Cytotoxicity assay in human PBM cells; assay type: cell-based; conditions: human, human PBM cells
Method: as §1

[4] = molecular target: Hepatitis C Virus NS3/4A protease Wild Type (Hepatitis C virus genotype 1b, UniProt O92972); assay: HCV NS3/4A protease FRET assay, wild type; assay type: biochemical
Sequence of Hepatitis C Virus NS3/4A protease Wild Type (O92972 1027-1657): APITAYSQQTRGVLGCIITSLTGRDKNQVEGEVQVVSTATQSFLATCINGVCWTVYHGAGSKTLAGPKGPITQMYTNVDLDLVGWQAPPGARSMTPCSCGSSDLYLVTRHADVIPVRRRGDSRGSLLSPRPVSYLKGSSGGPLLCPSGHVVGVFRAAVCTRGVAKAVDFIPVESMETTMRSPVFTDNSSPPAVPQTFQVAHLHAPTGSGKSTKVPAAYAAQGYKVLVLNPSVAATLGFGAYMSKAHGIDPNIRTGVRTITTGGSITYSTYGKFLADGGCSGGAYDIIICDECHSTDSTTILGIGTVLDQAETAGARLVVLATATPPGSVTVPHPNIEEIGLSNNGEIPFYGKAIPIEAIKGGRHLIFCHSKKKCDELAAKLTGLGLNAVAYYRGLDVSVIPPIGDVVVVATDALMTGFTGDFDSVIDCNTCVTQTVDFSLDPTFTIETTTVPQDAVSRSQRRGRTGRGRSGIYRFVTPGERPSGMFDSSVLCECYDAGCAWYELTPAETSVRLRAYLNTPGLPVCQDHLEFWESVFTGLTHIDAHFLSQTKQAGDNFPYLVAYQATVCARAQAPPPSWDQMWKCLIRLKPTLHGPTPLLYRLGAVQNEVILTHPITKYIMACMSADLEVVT
Method: The HCV NS3/4A protease assays were carried out using a SensoLyte® 490 HCV Protease Assay Kit using fluorescence resonance energy transfer (FRET) peptide (AnaSpec).

[5] = system: cellular rRNA (cytotoxicity marker); assay: HCV replicon assay, cytotoxicity by rRNA; assay type: cell-based; conditions: human, Huh 7 Clone B cells containing HCV replicon RNA; rRNA, Huh 7 Clone B cells
Method: (§2) Huh 7 Clone B cells containing HCV replicon RNA would be seeded in a 96-well plate at 5000 cells/well, and the compounds tested at 10 μM in triplicate immediately after seeding. Following five days incubation (37° C., 5% CO2), total cellular RNA was isolated by using versaGene RNA purification kit from Gentra. Replicon RNA and an internal control (TaqMan rRNA control reagents, Applied Biosystems) were amplified in a single step multiplex Real Time RT-PCR Assay. The antiviral effectiveness of the compounds was calculated by subtracting the threshold RT-PCR cycle of the test compound from the threshold RT-PCR cycle of the no-drug control (ΔCt HCV). A ΔCt of 3.3 equals a 1-log reduction (equal to 90% less starting material) in Replicon RNA levels. The cytotoxicity of the compounds was also calculated by using the ΔCt rRNA values. (2′-Me-C) was used as the control. To determine EC90 and IC50 values^2, ΔCt: values were first converted into fraction of starting material^3 and then were used to calculate the % inhibition.

[6] = system: Huh 7 Clone B cells (rRNA); assay: HCV replicon assay, cytotoxicity by rRNA; assay type: cell-based; conditions: five days
Method: as §2

[7] = molecular target: Hepatitis C Virus NS3/4A protease R155K (Hepatitis C virus genotype 1b, UniProt O92972, R1181K); assay: biochemical
Sequence of Hepatitis C Virus NS3/4A protease R155K (Hepatitis C virus genotype 1b, UniProt O92972, R1181K) (O92972 1027-1657 R1181K): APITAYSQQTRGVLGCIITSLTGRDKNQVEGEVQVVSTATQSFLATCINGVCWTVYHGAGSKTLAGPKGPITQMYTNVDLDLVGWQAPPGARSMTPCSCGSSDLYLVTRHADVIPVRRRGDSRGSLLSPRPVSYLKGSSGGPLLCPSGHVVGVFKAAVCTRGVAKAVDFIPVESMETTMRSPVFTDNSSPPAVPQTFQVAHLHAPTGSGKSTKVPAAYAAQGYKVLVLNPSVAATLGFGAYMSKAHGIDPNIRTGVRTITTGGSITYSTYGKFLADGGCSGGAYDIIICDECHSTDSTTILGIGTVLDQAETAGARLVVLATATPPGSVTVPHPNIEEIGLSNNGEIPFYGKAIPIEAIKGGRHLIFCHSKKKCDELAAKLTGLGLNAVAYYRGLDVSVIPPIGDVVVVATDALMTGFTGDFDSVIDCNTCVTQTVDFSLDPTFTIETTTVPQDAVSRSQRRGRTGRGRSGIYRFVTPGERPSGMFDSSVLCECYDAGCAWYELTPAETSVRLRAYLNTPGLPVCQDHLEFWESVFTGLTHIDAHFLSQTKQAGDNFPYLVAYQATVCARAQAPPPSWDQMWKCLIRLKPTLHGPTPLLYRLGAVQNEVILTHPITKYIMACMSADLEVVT
Sequence of Hepatitis C Virus NS3/4A protease R155K (Hepatitis C virus genotype 1b, UniProt O92972, R1181K) (O92972 1658-1711 partner limits assumed): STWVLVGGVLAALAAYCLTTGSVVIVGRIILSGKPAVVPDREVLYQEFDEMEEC

[8] = system: Hepatitis C Virus NS3/4A protease R155K; assay: biochemical; conditions: R155K vs Wild Type
[9] = molecular target: Hepatitis C Virus NS3/4A protease A156T (Hepatitis C virus genotype 1b, UniProt O92972, A1182T); assay: biochemical
Sequence of Hepatitis C Virus NS3/4A protease A156T (Hepatitis C virus genotype 1b, UniProt O92972, A1182T) (O92972 1027-1657 A1182T): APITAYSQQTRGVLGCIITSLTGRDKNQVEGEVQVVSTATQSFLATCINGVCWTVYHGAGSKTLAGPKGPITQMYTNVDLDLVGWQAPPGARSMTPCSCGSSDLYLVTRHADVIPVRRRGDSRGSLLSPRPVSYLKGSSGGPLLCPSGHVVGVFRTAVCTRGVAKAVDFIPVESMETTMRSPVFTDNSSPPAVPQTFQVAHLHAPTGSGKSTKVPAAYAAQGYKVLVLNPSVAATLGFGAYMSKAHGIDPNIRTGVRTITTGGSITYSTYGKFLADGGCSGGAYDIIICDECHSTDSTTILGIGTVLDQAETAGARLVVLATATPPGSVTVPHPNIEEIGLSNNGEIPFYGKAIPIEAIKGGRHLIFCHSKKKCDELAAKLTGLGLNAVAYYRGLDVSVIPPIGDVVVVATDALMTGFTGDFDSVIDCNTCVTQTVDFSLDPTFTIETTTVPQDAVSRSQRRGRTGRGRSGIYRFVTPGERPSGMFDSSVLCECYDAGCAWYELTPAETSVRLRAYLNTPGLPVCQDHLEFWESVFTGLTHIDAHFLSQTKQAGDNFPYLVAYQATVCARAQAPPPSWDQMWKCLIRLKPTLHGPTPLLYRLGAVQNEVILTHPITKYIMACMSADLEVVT
Sequence of Hepatitis C Virus NS3/4A protease A156T (Hepatitis C virus genotype 1b, UniProt O92972, A1182T) (O92972 1658-1711 partner limits assumed): as the sequence (O92972 1658-1711 partner limits assumed) above

[10] = system: Hepatitis C Virus NS3/4A protease A156T; assay: biochemical; conditions: A156T vs Wild Type
Thrombin = molecular target: T1, Thrombin (Homo sapiens, UniProt P00734); assay: Inhibition of human proteases: thrombin; assay type: biochemical
T1 construct: purchased Anaspec
Method: (§3) In an effort to circumvent similar toxicities, new protease inhibitors were evaluated for inhibition of a panel of important human proteases. The enzymes tested are Elastase (Neutrophil), Plasmin, Thrombin, and Cathepsin S.
(§4) Plasmin and Thrombin(Sensolyte RH110 Plasmin Activity Assay Kit and Sensolyte Thrombin Activity Assay Kit (Anaspec)): Reactions were conducted in a sample volume of 100 μL per well in a black 96 well plate. Protocol A was followed from the kit insert where the 2× assay buffer was diluted 1:1 with deionized water. Included in each assay were a positive control (diluted enzyme and no test compound), inhibitor control (contains diluted enzyme and plasmin inhibitor; component E from the kit or thrombin inhibitor; N-α-NAPAP synthetic inhibitor) and substrate control (assay buffer and substrate). Vehicle and autofluorescence controls were also performed. Drug dilutions were added (10 μL) at 10× concentrations in assay buffer. The enzyme was added at 40 μL/well at a concentration of 0.25 μg/mL (plasmin) and 1 μg/mL (thrombin) to all wells except the substrate control. Finally, 50 μL assay buffer containing substrate was added to each well. […] The fluorescence intensity was read on the Victor 3 plate reader at Ex/Em=490 nm/520 nm. […] Results are shown as substrate control adjusted percentages of maximum absorbance, which was given by the positive control.

Kallikrein = assay: Inhibition of human proteases: kallikrein; assay type: biochemical
Chymase = Chymase (Homo sapiens, UniProt P23946); assay: Inhibition of human proteases: chymase; assay type: biochemical
Sequence of Chymase (P23946 22-247): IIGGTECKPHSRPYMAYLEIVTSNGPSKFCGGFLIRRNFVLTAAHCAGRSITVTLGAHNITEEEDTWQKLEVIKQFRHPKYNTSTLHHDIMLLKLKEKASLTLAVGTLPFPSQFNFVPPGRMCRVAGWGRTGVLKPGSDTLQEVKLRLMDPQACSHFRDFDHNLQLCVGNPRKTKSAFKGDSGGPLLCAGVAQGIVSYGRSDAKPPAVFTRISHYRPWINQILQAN

Plasmin = molecular target: T2, Plasmin (Homo sapiens, UniProt P00747); assay: Inhibition of human proteases: plasmin; assay type: biochemical
T2 construct: purchased Anaspec
T2 sequence (P00747 581-810 limits assumed): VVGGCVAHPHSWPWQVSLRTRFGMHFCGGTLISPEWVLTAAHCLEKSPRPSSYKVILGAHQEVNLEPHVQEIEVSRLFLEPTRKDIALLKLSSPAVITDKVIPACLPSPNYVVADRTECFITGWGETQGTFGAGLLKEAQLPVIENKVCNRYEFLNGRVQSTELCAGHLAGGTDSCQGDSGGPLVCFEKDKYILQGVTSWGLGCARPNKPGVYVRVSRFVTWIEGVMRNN
T2 sequence (P00747 97-580 partner limits assumed): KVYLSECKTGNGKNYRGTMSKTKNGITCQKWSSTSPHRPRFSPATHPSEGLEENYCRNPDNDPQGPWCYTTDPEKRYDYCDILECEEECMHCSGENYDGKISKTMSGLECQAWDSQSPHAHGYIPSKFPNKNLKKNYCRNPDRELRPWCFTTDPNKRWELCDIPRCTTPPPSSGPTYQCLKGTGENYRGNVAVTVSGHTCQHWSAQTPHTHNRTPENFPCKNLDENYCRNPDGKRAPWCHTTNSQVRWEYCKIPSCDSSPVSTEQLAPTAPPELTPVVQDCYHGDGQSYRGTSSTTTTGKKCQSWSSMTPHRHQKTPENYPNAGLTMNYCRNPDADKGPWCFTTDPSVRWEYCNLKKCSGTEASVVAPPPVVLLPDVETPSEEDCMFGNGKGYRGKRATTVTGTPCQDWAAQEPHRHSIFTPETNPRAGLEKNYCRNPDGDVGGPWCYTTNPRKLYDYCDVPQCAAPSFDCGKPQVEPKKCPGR
Method: as §3, §4

Sequence of Hepatitis C Virus NS3/4A protease T54A (Hepatitis C virus genotype 1b, UniProt O92972, T1080A) (O92972 1027-1657 T1080A): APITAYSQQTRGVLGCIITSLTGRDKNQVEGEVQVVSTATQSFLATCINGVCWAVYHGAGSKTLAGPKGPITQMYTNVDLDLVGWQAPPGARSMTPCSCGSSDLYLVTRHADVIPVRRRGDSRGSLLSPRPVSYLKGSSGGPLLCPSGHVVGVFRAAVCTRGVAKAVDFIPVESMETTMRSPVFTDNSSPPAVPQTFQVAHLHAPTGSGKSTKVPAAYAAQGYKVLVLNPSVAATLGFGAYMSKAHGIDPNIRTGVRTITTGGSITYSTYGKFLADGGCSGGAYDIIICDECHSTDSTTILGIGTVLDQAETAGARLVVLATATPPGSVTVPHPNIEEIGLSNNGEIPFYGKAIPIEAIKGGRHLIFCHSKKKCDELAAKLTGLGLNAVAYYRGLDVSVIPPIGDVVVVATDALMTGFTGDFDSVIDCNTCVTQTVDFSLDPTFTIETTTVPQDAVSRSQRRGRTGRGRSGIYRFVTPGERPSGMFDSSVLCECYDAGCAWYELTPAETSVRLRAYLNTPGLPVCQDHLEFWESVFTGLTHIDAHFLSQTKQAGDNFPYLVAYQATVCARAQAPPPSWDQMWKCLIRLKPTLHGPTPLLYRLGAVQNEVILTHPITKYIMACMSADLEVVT
Sequence of Hepatitis C Virus NS3/4A protease T54A (Hepatitis C virus genotype 1b, UniProt O92972, T1080A) (O92972 1658-1711 partner limits assumed): as the sequence (O92972 1658-1711 partner limits assumed) above

For `C=C[C@@H]1C[C@]1(NC(=O)[C@@H]1C[C@@H](OC(=O)N2Cc3cccc(F)c3C2)CN1C(=O)[C@@H](NC(=O)OC(C)(C)C)C(C)(C)C)C(=O)NS(=O)(=O)C1CC1` [Compound 10], the EC50 [1] was 70 nM, the EC90 ([1]; T54A, read-out: Anti-HCV protease activity EC90) was 850 nM and the “Fold Increase of EC50” value [2] was 15.0. The “Fold Increase of EC90” value [2] was 28.5, the inhibition at 100 µM (human PBM cells) was 17% and the IC50 [3] was > 100000 nM. The “Fold Increase of EC50” value [4] was 1.0, the “Fold Increase of EC90” value [4] was 1.0 and the EC50 ([4]; read-out: Anti-HCV protease activity EC50) was 4.9 nM. The EC90 ([4]; read-out: Anti-HCV protease activity EC90) was 30 nM, the CC50 at 5 days [5] was > 300 nM and the “DCt rRNA” value ([6]; Conc 0.01 μM) was −0.21. The “rRNA (% inhibition)” value ([6]; Conc 0.01 μM) was −15.99, the “DCt rRNA” value ([6]; Conc 0.03 μM) was −0.49 and the “rRNA (% inhibition)” value ([6]; Conc 0.03 μM) was −40.10. The “DCt rRNA” value ([6]; Conc 0.1 μM) was −0.09, the “rRNA (% inhibition)” value ([6]; Conc 0.1 μM) was −6.27 and the “DCt rRNA” value ([6]; Conc 0.3 μM) was 0.14. For the same compound, the “rRNA (% inhibition)” value ([6]; Conc 0.3 μM) was 9.35, the EC50 [7] was 270 nM and the EC90 ([7]; R155K, read-out: Anti-HCV protease activity EC90) was 2700 nM. For the same compound, the “Fold Increase of EC50” value [8] was 55.8, the “Fold Increase of EC90” value [8] was 91.4 and the EC50 [9] was 33 nM. The EC90 ([9]; A156T, read-out: Anti-HCV protease activity EC90) was 130 nM, the “Fold Increase of EC50” value [10] was 6.7 and the “Fold Increase of EC90” value [10] was 4.4. For the same compound, the IC50 (Thrombin) was > 100000 nM, the IC50 (Kallikrein) was 47000 nM and the IC50 (Chymase) was > 100000 nM. For the same compound, the IC50 (Plasmin) was > 100000 nM.

Source: patent US8729014B2, “Specific HCV NS3 protease inhibitors” (RFS Pharma, LLC, priority 2010, dated 2014)
